Assay results from PubChem BioAssay (NCI).
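Assay format: 96-well plates, 48-hour exposure. TGI is the concentration that stops growth completely.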

Tests used:
Assay in all cases: inhibition of tumour cell growth, NCI panel, 48 h
SNB-75 CNS = system: SNB-75 CNS
A549 NSCLC = system: A549 NSCLC
T-47D breast = system: T-47D breast
UACC-62 melanoma = system: UACC-62 melanoma
SK-MEL-28 melanoma = system: SK-MEL-28 melanoma
K-562 leukemia = system: K-562 leukemia
SK-MEL-2 melanoma = system: SK-MEL-2 melanoma
HL-60(TB) leukemia = system: HL-60(TB) leukemia
HT29 colon = system: HT29 colon
HS 578T breast = system: HS 578T breast

Molecule `Cc1ccc(C(=O)/C=C/N2CCN(c3cccc(C(F)(F)F)c3)CC2)cc1` has a TGI (SNB-75 CNS) of 34.7 µM, a TGI (A549 NSCLC) of 53.6 µM and a TGI (T-47D breast) of 76.5 µM. The TGI (UACC-62 melanoma) was 34.8 µM, the TGI (SK-MEL-28 melanoma) was 38.4 µM and the TGI (K-562 leukemia) was 49.1 µM. For the same molecule, the TGI (SK-MEL-2 melanoma) was 34.8 µM, the TGI (HL-60(TB) leukemia) was 60.2 µM and the TGI (HT29 colon) was 35.8 µM. The TGI (HS 578T breast) was 51.4 µM.
